Assay results published in patent US6589993B2, “Treating vancomycin-intermediates and multiresistant staphylococci infection with thiamphenicol or a salt thereof” (Zambon Group S.p.A., priority 2000, dated 2003).
Converted amounts (≈) assume the structure as drawn.

What was measured:
[1] = system: S. aureus vancomycin-intermediates (VISA) Met-R strains; experiment: MIC determination (NCCLS broth microdilution), VISA Met-R strains; assay type: cell-based, Staphylococcus aureus
Protocol: (§1) The MICs of thiamphenicol and of other antibiotics was obtained by using the method proposed by NCCLS (National Committee for Clinical Laboratory Standards, 1999).
(§2) Various antibiotic concentrations were added to bacteria in exponental growth (final inoculum 5×10^5 […]); dilution in Mb (cation-supplemented Mueller-Hinton broth) and distribution on a microplate by using an automatic diluting machine Biomek 1000 (Beckman, USA). MHb charged with 2% NaCl was used to test the methicillin activity.
(§3) The antibiotic concentration which hinders a visible growth after 18-24 hours of incubation at 37° C., was registered as MIC.
(§4) S. aureus ATCC 29213 was used as quality control strain.

[2] = system: S. aureus Met-R multiresistant strains; experiment: MIC determination (NCCLS broth microdilution), methicillin-resistant multiresistant S. aureus strains; assay type: cell-based, Staphylococcus aureus; conditions: for % susceptible at breakpoint: NCCLS (1999) breakpoints; for MIC: antibiotype Oxa, Ery
Protocol: as §1, §2, §3, §4

[3] = Strain 52 VISA, antibiotype Oxa, Cip, Clin, Ery

Compound: CN[C@H](CC(C)C)C(=O)N[C@H]1C(=O)N[C@@H](CC(N)=O)C(=O)N[C@H]2C(=O)N[C@H]3C(=O)N[C@H](C(=O)N[C@H](C(=O)O)c4cc(O)cc(O)c4-c4cc3ccc4O)[C@H](O)c3ccc(c(Cl)c3)Oc3cc2cc(c3O[C@@H]2O[C@H](CO)[C@@H](O)[C@H](O)[C@H]2O[C@H]2C[C@](C)(N)[C@H](O)[C@H](C)O2)Oc2ccc(cc2Cl)[C@H]1O [Vancomicine, vancomycine]
- MIC ([1]; Staphylococcus aureus, VISA): 8 µg/mL (≈ 5.52 µM)
- MIC [1, 3]: 8 µg/mL (≈ 5.52 µM)
- MIC Range ([1]; VISA (2) Met-R): 8 µg/mL (≈ 5.52 µM)
- MIC Range ([2]; S. aureus (50) Met-R): 0,5-2 mg/l
- % susceptible at breakpoint ([2]; S. aureus (50) Met-R): 100%
- MIC50 ([2]; Staphylococcus aureus): 1 µg/mL (≈ 0.69 µM)
- MIC90 ([2]; Staphylococcus aureus): 1 µg/mL (≈ 0.69 µM)
- MIC ([2]; Staphylococcus aureus, Strain 1, Cip, Clin, Gm): 0.5 µg/mL (≈ 0.345 µM)
- MIC ([2]; Staphylococcus aureus, Strain 2, Clin, Fos): 1 µg/mL (≈ 0.69 µM)
- MIC ([2]; Staphylococcus aureus, Strain 3, Cip, Clin, Gm): 1 µg/mL (≈ 0.69 µM)
- MIC ([2]; Staphylococcus aureus, Strain 4, Cip, Gm): 1 µg/mL (≈ 0.69 µM)
- MIC ([2]; Staphylococcus aureus, Strain 5, Cip, Clin): 1 µg/mL (≈ 0.69 µM)
- MIC ([2]; Staphylococcus aureus, Strain 6, Clin, Gm): 1 µg/mL (≈ 0.69 µM)
- MIC ([2]; Staphylococcus aureus, Strain 7, Cip, Gm): 0.5 µg/mL (≈ 0.345 µM)
- MIC ([2]; Staphylococcus aureus, Strain 8, Cip, Clin): 1 µg/mL (≈ 0.69 µM)
- MIC ([2]; Staphylococcus aureus, Strain 9, Cip, Clin, Gm): 1 µg/mL (≈ 0.69 µM)
- MIC ([2]; Staphylococcus aureus, Strain 10, Cip, Clin, Gm): 1 µg/mL (≈ 0.69 µM)
- MIC ([2]; Staphylococcus aureus, Strain 11, Clin, Rif): 1 µg/mL (≈ 0.69 µM)
- MIC ([2]; Staphylococcus aureus, Strain 12, Cip, Clin): 1 µg/mL (≈ 0.69 µM)
- MIC ([2]; Staphylococcus aureus, Strain 13, Cip, Clin): 1 µg/mL (≈ 0.69 µM)
- MIC ([2]; Staphylococcus aureus, Strain 14, Clin, Cip): 1 µg/mL (≈ 0.69 µM)
- MIC ([2]; Staphylococcus aureus, Strain 15, Cip, Clin, Gm): 0.5 µg/mL (≈ 0.345 µM)
- MIC ([2]; Staphylococcus aureus, Strain 16, Cip, Clin): 1 µg/mL (≈ 0.69 µM)
- MIC ([2]; Staphylococcus aureus, Strain 17, Cip, Clin): 0.5 µg/mL (≈ 0.345 µM)
- MIC ([2]; Staphylococcus aureus, Strain 18, Cip, Clin, Gm): 1 µg/mL (≈ 0.69 µM)
- MIC ([2]; Staphylococcus aureus, Strain 19, Cip, Clin, Gm): 1 µg/mL (≈ 0.69 µM)
- MIC ([2]; Staphylococcus aureus, Strain 20, Cip, Clin, Gm): 1 µg/mL (≈ 0.69 µM)
- MIC ([2]; Staphylococcus aureus, Strain 21, Cip, Clin, Gm): 1 µg/mL (≈ 0.69 µM)
- MIC ([2]; Staphylococcus aureus, Strain 22, Cip, Clin): 0.5 µg/mL (≈ 0.345 µM)
- MIC ([2]; Staphylococcus aureus, Strain 23, Cip, Clin, Gm): 1 µg/mL (≈ 0.69 µM)
- MIC ([2]; Staphylococcus aureus, Strain 24, Cip, Clin, Gm): 1 µg/mL (≈ 0.69 µM)
- MIC ([2]; Staphylococcus aureus, Strain 25, Cip, Clin, Gm): 1 µg/mL (≈ 0.69 µM)
- MIC ([2]; Staphylococcus aureus, Strain 26, Cip, Clin, Fos, Gm): 1 µg/mL (≈ 0.69 µM)
- MIC ([2]; Staphylococcus aureus, Strain 27, Cip, Clin, Fos, Gm): 1 µg/mL (≈ 0.69 µM)
- MIC ([2]; Staphylococcus aureus, Strain 28, Cip, Clin, Gm): 1 µg/mL (≈ 0.69 µM)
- MIC ([2]; Staphylococcus aureus, Strain 29, Clin, Fos): 1 µg/mL (≈ 0.69 µM)
- MIC ([2]; Staphylococcus aureus, Strain 30, Cip, Clin, Gm, SXT, Dox): 0.5 µg/mL (≈ 0.345 µM)
- MIC ([2]; Staphylococcus aureus, Strain 31, Cip, Clin, Fox, Gm): 1 µg/mL (≈ 0.69 µM)
- MIC ([2]; Staphylococcus aureus, Strain 32, Cip, Clin, Gm, SXT, Rif): 1 µg/mL (≈ 0.69 µM)
- MIC ([2]; Staphylococcus aureus, Strain 33, Cip, Clin, Gm): 0.5 µg/mL (≈ 0.345 µM)
- MIC ([2]; Staphylococcus aureus, Strain 34, Cip, Clin, Gm): 0.5 µg/mL (≈ 0.345 µM)
- MIC ([2]; Staphylococcus aureus, Strain 35, Cip, Clin, Gm): 1 µg/mL (≈ 0.69 µM)
- MIC ([2]; Staphylococcus aureus, Strain 36, Cip, Clin, Fos): 0.5 µg/mL (≈ 0.345 µM)
- MIC ([2]; Staphylococcus aureus, Strain 37, Cip, Clin, Fos, Gm): 0.5 µg/mL (≈ 0.345 µM)
- MIC ([2]; Staphylococcus aureus, Strain 38, Cip, Gm): 0.5 µg/mL (≈ 0.345 µM)
- MIC ([2]; Staphylococcus aureus, Strain 39, Cip, Clin, Fos, Gm): 0.5 µg/mL (≈ 0.345 µM)
- MIC ([2]; Staphylococcus aureus, Strain 40, Cip, Clin, Gm): 0.5 µg/mL (≈ 0.345 µM)
- MIC ([2]; Staphylococcus aureus, Strain 41, Cip, Clin): 0.5 µg/mL (≈ 0.345 µM)
- MIC ([2]; Staphylococcus aureus, Strain 42, Cip, Clin, Gm): 0.5 µg/mL (≈ 0.345 µM)
- MIC ([2]; Staphylococcus aureus, Strain 43, Cip, Clin, Gm): 0.5 µg/mL (≈ 0.345 µM)
- MIC ([2]; Staphylococcus aureus, Strain 44, Cip, Clin, Gm, Rif, Dox): 1 µg/mL (≈ 0.69 µM)
- MIC ([2]; Staphylococcus aureus, Strain 45, Cip, Clin, Gm, Rif, Dox, Fos): 1 µg/mL (≈ 0.69 µM)
- MIC ([2]; Staphylococcus aureus, Strain 46, Clin, Fos): 0.5 µg/mL (≈ 0.345 µM)
- MIC ([2]; Staphylococcus aureus, Strain 47, Cip, Clin, Gm): 0.5 µg/mL (≈ 0.345 µM)
- MIC ([2]; Staphylococcus aureus, Strain 48, Cip, Clin): 2 µg/mL (≈ 1.38 µM)
- MIC ([2]; Staphylococcus aureus, Strain 49, Cip, Gm): 1 µg/mL (≈ 0.69 µM)
- MIC ([2]; Staphylococcus aureus, Strain 50, Cip, Clin, Gm, Rif, Dox): 1 µg/mL (≈ 0.69 µM)

Compound: teicoplanine
- MIC ([1]; Strain 51 VISA, antibiotype Oxa, Cip, Clin, Ery): 8 µg/mL
- MIC [1, 3]: 8 µg/mL
- MIC Range ([1]; VISA (2) Met-R): 8 µg/mL
- % susceptible at breakpoint ([1]; VISA (2) Met-R, NCCLS (1999) breakpoints): 100%
- MIC 50% ([2]; S. aureus (50) Met-R): 0,5 mg/l
- MIC 90% ([2]; S. aureus (50) Met-R): 1 µg/mL
- MIC Range ([2]; S. aureus (50) Met-R): 0,12-2 mg/l
- % susceptible at breakpoint ([2]; S. aureus (50) Met-R): 100%
- MIC ([2]; Strain 1, Cip, Clin, Gm): 0.25 µg/mL
- MIC ([2]; Strain 2, Clin, Fos): 0.5 µg/mL
- MIC ([2]; Strain 3, Cip, Clin, Gm): 1 µg/mL
- MIC ([2]; Strain 4, Cip, Gm): 0.5 µg/mL
- MIC ([2]; Strain 5, Cip, Clin): 1 µg/mL
- MIC ([2]; Strain 6, Clin, Gm): 1 µg/mL
- MIC ([2]; Strain 7, Cip, Gm): 0.25 µg/mL
- MIC ([2]; Strain 8, Cip, Clin): 0.25 µg/mL
- MIC ([2]; Strain 9, Cip, Clin, Gm): 0.25 µg/mL
- MIC ([2]; Strain 10, Cip, Clin, Gm): 0.25 µg/mL
- MIC ([2]; Strain 11, Clin, Rif): 1 µg/mL
- MIC ([2]; Strain 12, Cip, Clin): 1 µg/mL
- MIC ([2]; Strain 13, Cip, Clin): 1 µg/mL
- MIC ([2]; Strain 14, Clin, Cip): 0.5 µg/mL
- MIC ([2]; Strain 15, Cip, Clin, Gm): 0.25 µg/mL
- MIC ([2]; Strain 16, Cip, Clin): 1 µg/mL
- MIC ([2]; Strain 17, Cip, Clin): 0.25 µg/mL
- MIC ([2]; Strain 18, Cip, Clin, Gm): 1 µg/mL
- MIC ([2]; Strain 19, Cip, Clin, Gm): 1 µg/mL
- MIC ([2]; Strain 20, Cip, Clin, Gm): 0.25 µg/mL
- MIC ([2]; Strain 21, Cip, Clin, Gm): 0.5 µg/mL
- MIC ([2]; Strain 22, Cip, Clin): 0.25 µg/mL
- MIC ([2]; Strain 23, Cip, Clin, Gm): 0.5 µg/mL
- MIC ([2]; Strain 24, Cip, Clin, Gm): 0.5 µg/mL
- MIC ([2]; Strain 25, Cip, Clin, Gm): 1 µg/mL
- MIC ([2]; Strain 26, Cip, Clin, Fos, Gm): 1 µg/mL
- MIC ([2]; Strain 27, Cip, Clin, Fos, Gm): 1 µg/mL
- MIC ([2]; Strain 28, Cip, Clin, Gm): 0.5 µg/mL
- MIC ([2]; Strain 29, Clin, Fos): 0.5 µg/mL
- MIC ([2]; Strain 30, Cip, Clin, Gm, SXT, Dox): 1 µg/mL
- MIC ([2]; Strain 31, Cip, Clin, Fox, Gm): 0.5 µg/mL
- MIC ([2]; Strain 32, Cip, Clin, Gm, SXT, Rif): 0.5 µg/mL
- MIC ([2]; Strain 33, Cip, Clin, Gm): 0.5 µg/mL
- MIC ([2]; Strain 34, Cip, Clin, Gm): 0.25 µg/mL
- MIC ([2]; Strain 35, Cip, Clin, Gm): 0.5 µg/mL
- MIC ([2]; Strain 36, Cip, Clin, Fos): 1 µg/mL
- MIC ([2]; Strain 37, Cip, Clin, Fos, Gm): 0.25 µg/mL
- MIC ([2]; Strain 38, Cip, Gm): 0.25 µg/mL
- MIC ([2]; Strain 39, Cip, Clin, Fos, Gm): 0.25 µg/mL
- MIC ([2]; Strain 40, Cip, Clin, Gm): 0.25 µg/mL
- MIC ([2]; Strain 41, Cip, Clin): 0.25 µg/mL
- MIC ([2]; Strain 42, Cip, Clin, Gm): 0.12 µg/mL
- MIC ([2]; Strain 43, Cip, Clin, Gm): 0.5 µg/mL
- MIC ([2]; Strain 44, Cip, Clin, Gm, Rif, Dox): 1 µg/mL
- MIC ([2]; Strain 45, Cip, Clin, Gm, Rif, Dox, Fos): 0.5 µg/mL
- MIC ([2]; Strain 46, Clin, Fos): 0.25 µg/mL
- MIC ([2]; Strain 47, Cip, Clin, Gm): 0.12 µg/mL
- MIC ([2]; Strain 48, Cip, Clin): 2 µg/mL
- MIC ([2]; Strain 49, Cip, Gm): 0.5 µg/mL
- MIC ([2]; Strain 50, Cip, Clin, Gm, Rif, Dox): 0.5 µg/mL
